According to patent publication US11078175B2, “Substituted dihydrobenzofuran compounds and their use as synergists” (ENDURA S.P.A., priority 2015, dated 2021):

Assays:
[1] = target: T1, FE4 Myzus persicae esterases (Myzus persicae, UniProt P35502); assay: Inhibition of esterase enzymes, 4-nitrophenyl acetate substrate with purified FE4; format: biochemical; conditions: 2.5 μL of 10 mM compound in acetone added to 50 μL, 10 min incubation, substrate 4-nitrophenyl acetate 0.8 mM final, acetone-only control
T1 construct: would be utilised for the purified esterases from aphids; from tissue; host or cells: aphids (Myzus persicae)
T1 sequence (P35502 24-564): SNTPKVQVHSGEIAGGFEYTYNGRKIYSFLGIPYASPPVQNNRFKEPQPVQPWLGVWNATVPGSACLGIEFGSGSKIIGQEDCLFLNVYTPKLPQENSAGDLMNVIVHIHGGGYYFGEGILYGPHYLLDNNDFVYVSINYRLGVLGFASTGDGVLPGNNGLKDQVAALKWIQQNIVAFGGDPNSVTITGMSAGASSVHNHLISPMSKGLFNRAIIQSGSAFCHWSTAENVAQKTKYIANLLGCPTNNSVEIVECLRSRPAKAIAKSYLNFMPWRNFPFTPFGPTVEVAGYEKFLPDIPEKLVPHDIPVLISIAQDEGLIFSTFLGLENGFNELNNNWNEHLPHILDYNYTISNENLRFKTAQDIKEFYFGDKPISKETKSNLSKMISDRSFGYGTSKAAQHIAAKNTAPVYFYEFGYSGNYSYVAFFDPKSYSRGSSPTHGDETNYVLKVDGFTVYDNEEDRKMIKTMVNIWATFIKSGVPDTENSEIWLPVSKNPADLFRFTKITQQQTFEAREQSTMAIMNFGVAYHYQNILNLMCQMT
Procedure: It was envisaged, therefore, that the ‘esterase intereference assay’ (Khot et al., 2008) would be utilised for the purified esterases from aphids. Various esterase substrates were assessed to find one suitable of monitoring inhibition in an insect homogenate. The Myzus persicae resistance associated esterase, FE4, was used.
From the literature (Philippou et al., 2013) it is known that 1-naphthyl acetate is not suitable for this assay. Instead, 4-nitrophenyl acetate was used. A 10 mM pNA stock was prepared in acetone and added to 0.02 M phosphate buffer pH 7.0 (final concentration 2 mM). The comparison was made with 6 PBO analogues of variable efficacy.
For the assay 10 μL of purified FE4 was diluted to a total volume of 50 μL by the addition of 0.02 M phosphate buffer, pH 7.0 in individual wells of a microplate (maxisorb, NUNC). To each well, 2.5 μL of 10 mM of the compound of Example 1 and of Example 2 in acetone was added and incubated for 10 mins, with acetone only used as a control. Following incubation, 100 μL of 0.02 M phosphate buffer, pH 7.0 and 100 μL of 2 mM 4-nitrophenyl acetate was added (final volume in well 250 μL, final substrate concentration 0.8 mM). Enzyme activity was read at 405 nm in a Spectramax Tmax for 5 min, with readings taken every 5 secs. The rate (mOD min^−1) was calculated by the integrated software, Softmax Pro v.5.4.

Bemisia tabaci CYP6CM1 = conditions: recombinant CYP6CM1; 3 μL of 10 mM compound stock in acetone added to 50 μL enzyme; 10 min incubation at room temperature; substrate 7-ethoxycoumarin; acetone-only control
Procedure: Ability of the compounds of the invention to inhibit oxidative enzymes (P450), a major mechanism conferring resistance to xenobiotics, was measured using recombinant enzymes corresponding to CYPCM1 from Bemisia tabaci.
Diluted recombinant enzyme (50 μL) was mixed with 3 μL of a.m compounds stock solutions, with acetone only used as a control. After 10 min incubation at room temperature, 80 μL of 0.125 mM 7-ethoxycoumarin was added, followed by 10 μL 9.6 mM NADPH (nicotinamide adenine dinucleotide phosphate) in 0.1 M sodium phosphate, pH 7.8, and 0-deethylation activity monitored as above. A PBO solution (10 mM) was prepared in the same way as a comparison.

| Structure (SMILES) | remaining activity at 10000 µM (stock) [1] | % activity remaining (Bemisia tabaci CYP6CM1) |
| --- | --- | --- |
| CCCCCCc1cc2c(c(COCCOCCOCCCC)c1)OCC2 [Compound of Example 2, 5-n-hexyl-7-[[2-(2-Butoxyethoxy)ethoxy]methyl]-2,3-dihydrobenzo furan] | 40.6% | 86.22% |
| CCCCOCCOCCOCc1cc(CCC)cc2c1OCC2 [Compound of Example 1, 5-propyl-7-[[2-(2-Butoxyethoxy)ethoxy]methyl]-2,3-dihydrobenzo furan] | 33.2% | 38.47% |
